What was measured:
3T3 = assay: Cell uptake by MTN fluorescence EX620/EM680 (Examples 10 and 13, EX051605); format: cell-based, mouse; details: 10% w/w loading in DNA
Method: Materials: HSGDNA, MTN, ODNAS1116 (phosphorothioated, single stranded DNA, and Beta-cyclodextrin polymer (BCD-SBE, KKBIOMED Inc.) were previously prepared in water at 10 mg/ml, 1 mg/ml, 0.95 mg/ml, and 10 mg/ml respectively.
Procedure: For NAC-MTN, combined 37 ul HSGDNA (herring genomic DNA, Promega Inc.), 1426 ul HBSS( Hank's buffered saline, Sigma-Aldrich), with 37 ul of MTN, followed by 1500 ul 2× DMEM media to give 3 ml final and 24 uM (24 micro-molar) MTN and 10% w/w drug loading of MTN. For NAC-MTN (AR1505) combined 62 ul of HSDNA (deg. herring sperm DNA, Sigma) with 2377 ul HBSS, 61.7 ul MTN, 2500 ul 2× media to give 5 ml final and 24 uM MTN and 10% w/w drug loading of MTN to HSDNA. […]
Plate#1 Media was aspirated and cells treated with 100 ul of either NAC-MTN, CD-MTN, or MTN at 24 uM MTN final or 12.3 ug/ml MTN in all samples. Samples containing MTN were incubated 4 hours, removed, and fluorescence taken at EX620/EM680. […]
Samples were incubated 4 hours, removed, and MTN fluorescence taken at EX620/EM680. […] Average MTN fluorescence was averaged from 6 wells. For each cell type, MTN fluorescence was highest in MTN treated cells, followed by CD-MTN, and lowest in NAC-MTN. […]
PLATE#2: Dispensed 50 ul from source plate into plate #2 to give 150 ul final vol 4.1 ug/ml, 8 uMfinal per well, pre-read fluorescence w samples (bkgd) incubated 5 hr, removed, replaced w/ media, read fluor. […]

human MCF-7 cells = assay: Visually scored toxicity of NAC-MTN / NAC-DOX at fixed loading (Example 3); format: cell-based; details: 5.6 ug/ml final drug; 5.1% drug loading; 16 hour incubation
Method: Toxicity of NAC-MTN or NAC-DOX, at 50, 16.9, 5.6, and 1.9 ug/ml final drug concentration and 5.1 % drug loading in human MCF-7 cells. Sample A: 15 mg of HSDNA (EX031804A) was combined with 0.76 mg MTN(mw 517.4) or (sample B) 0.76 mg DOX (mw 579.99) to give 152 ug/ml final drug and 5.1% loading in 5 ml final vol. Samples C, D were MTN, or DOX only controls at equivalent final [drug] without HSDNA. Sample E was HSDNA, no drug and sample F was H2O only. MCF-7 cells were trypsinized and plated out previously. Triplicate samples were diluted 0.1 ml in 0.2 ml 1× media to give 3× fold serial dilution in 0.2 ml final. After 16 hour incubation the cells were visually inspected for signs of toxicity. Toxicity was scored as the following: 50%=one half all cells rounded, un-adhered or crenated.

## O=C1c2c(O)ccc(O)c2C(=O)c2c(NCCNCCO)ccc(NCCNCCO)c21 [MTN, mitoxantrone]
3T3; Plate#1, 24 uM MTN, 4 hours
  % reduction in fluorescence relative to MTN alone (MTN = 0%): 0%
3T3; Plate#2, 8 uM MTN
  % reduction in fluorescence relative to MTN alone (MTN = 0%): 0%
Human MCF-7 cells
  Toxicity (visual score): 90%
